This note sets out measurements from patent publication US20250197407A1 (Jazz Pharmaceuticals Ireland Limited, priority 2022, published 2025).

Sequence of SOS1/KRAS WT (Q07889 564-1049): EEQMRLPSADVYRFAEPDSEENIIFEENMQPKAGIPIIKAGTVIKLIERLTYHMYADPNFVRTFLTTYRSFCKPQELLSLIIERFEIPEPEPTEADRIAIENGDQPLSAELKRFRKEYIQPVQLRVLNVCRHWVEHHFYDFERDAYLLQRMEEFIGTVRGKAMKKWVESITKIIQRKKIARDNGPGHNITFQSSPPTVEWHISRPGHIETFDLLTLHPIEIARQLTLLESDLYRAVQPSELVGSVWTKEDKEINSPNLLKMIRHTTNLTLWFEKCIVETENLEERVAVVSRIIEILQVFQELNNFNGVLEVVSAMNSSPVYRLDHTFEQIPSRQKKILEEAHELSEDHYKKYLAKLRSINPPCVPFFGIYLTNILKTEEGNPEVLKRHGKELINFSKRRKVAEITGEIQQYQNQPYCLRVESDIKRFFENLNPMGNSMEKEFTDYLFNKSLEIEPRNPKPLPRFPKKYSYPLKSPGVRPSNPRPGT

The target in this assay is SOS1/KRAS WT (Homo sapiens (Human), UniProt Q07889). Briefly: SOS1/KRAS WT HTRF binding assay (FRET-based protein-protein interaction). To be noted: inhibition of His6-SOS1 (aa564-1049, 40 nM) binding to GST-KRAS-WT (aa1-188, 40 nM); at least two independent replicates; read-out: SOS1/KRAS WT HTRF Binding assay pIC50 (converted). In outline:
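Time-resolved FRET at 665 nm, read 4 hr after adding anti-GST-Eu(K) (4 nM) and anti-6His-XL665 (20 nM), tracked SOS1(aa564-1049)–KRAS WT(aa1-188) association. Both proteins were at 40 nM, pre-incubated 60 min at room temperature with compound. Max/min signals came from 0.05% DMSO and 10 μM reference, with four-parameter logistic IC50.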
As for `Cc1nnc(N[C@H](C)c2cccc(C(F)(F)CO)c2)c2cc3c(cc12)N(C)C(=O)C3(C)C` [Compound 95, 1,3,3,8-tetramethyl-5-[[(1R)-1-[3-(1,1-difluoro-2-hydroxy-ethyl)phenyl]ethyl]amino]pyrrolo [3,2-g]phthalazin-2-one], the IC50 is 7.41 nM.
The figure for `Cc1nnc(N[C@H](C)c2cccc(C(F)(F)C(C)(C)O)c2)c2cc3c(cc12)N(C)C(=O)C3(C)C` [Compound 96, 1,3,3,8-tetramethyl-5-[[(1R)-1-[3-(1,1-difluoro-2-hydroxy-2-methyl-propyl)phenyl]ethyl]amino]pyrrolo [3,2-g]phthalazin-2-one] is 13.5 nM.
The figure for `Cc1c([C@@H](C)Nc2nnc(C)c3cc4c(cc23)C(C)(C)C(=O)N4C)cccc1C(F)(F)CO` [Compound 97, 1,3,3,8-tetramethyl-5-[[(1R)-1-[3-(1,1-difluoro-2-hydroxy-ethyl)-2-methyl-phenyl]ethyl]amino]pyrrolo[3,2-g]phthalazin-2-one] is 13.2 nM.
On to `Cc1nnc(N[C@H](C)c2cccc(C(F)(F)C(C)(C)O)c2F)c2cc3c(cc12)N(C)C(=O)C3(C)C` [Compound 98, 1,3,3,8-tetramethyl-5-[[(1R)-1-[3-(1,1-difluoro-2-hydroxy-2-methyl-propyl)-2-fluoro-phenyl]ethyl]amino]pyrrolo[3,2-g]phthalazin-2-one], for which the IC50 was 12 nM.
With `Cc1nnc(N[C@H](C)c2cccc(C(F)(F)CO)c2F)c2cc3c(cc12)N(C)C(=O)C3(C)C` [Compound 99, 1,3,3,8-tetramethyl-5-[[(1R)-1-[3-(1,1-difluoro-2-hydroxy-ethyl)-2-fluoro-phenyl]ethyl]amino]pyrrolo[3,2-g]phthalazin-2-one] the figure was 8.13 nM; with `Cc1c([C@@H](C)Nc2nnc(C)c3cc4c(cc23)n(C(C)(C)C)c(=O)n4C)cccc1C(F)(F)CO` [Compound 100, 3-tert-butyl-1,8-dimethyl-5-[[(1R)-1-[3-(1,1-difluoro-2-hydroxy-ethyl)-2-methyl-phenyl]ethyl]amino]imidazo[4,5-g]phthalazin-2-one], 10 nM; with `COC1(C)C(=O)N(C)c2cc3c(N[C@H](C)c4cccc(C(F)(F)CO)c4)nnc(C)c3cc21` (stereo partly drawn) [Compound 101, 3-methoxy-1,3,5-trimethyl-8-[[(1R)-1-[3-(1,1-difluoro-2-hydroxy-ethyl)phenyl]ethyl]amino]pyrrolo [2,3-g]phthalazin-2-one], 10 nM.
With `COC1(C)C(=O)N(C)c2cc3c(N[C@H](C)c4cccc(C(F)(F)C(C)(C)O)c4C)nnc(C)c3cc21` (stereo partly drawn) [Compound 102, 3-methoxy-1,3,5-trimethyl-8-[[(1R)-1-[3-(1,1-difluoro-2-hydroxy-2-methyl-propyl)-2-methyl-phenyl]ethyl]amino]pyrrolo[2,3-g]phthalazin-2-one] the figure was 8.32 nM; with `Cc1nnc(N[C@H](C)c2cccc(C(F)(F)C(C)(C)O)c2)c2cc3c(cc12)n(C)c(=O)n3C(C)(C)C` [Compound 103, 3-tert-butyl-1,8-dimethyl-5-[[(1R)-1-[3-(1,1-difluoro-2-hydroxy-2-methyl-propyl)phenyl]ethyl]amino]imidazo [4,5-g]phthalazin-2-one], 7.94 nM; with `Cc1c([C@@H](C)Nc2nnc(C)c3cc4c(cc23)N(C)C(=O)C42CCOCC2)cccc1C(F)(F)C(C)(C)O` [Compound 104, 1,5-dimethyl-8-[[(1R)-1-[3-(1,1-difluoro-2-hydroxy-2-methyl-propyl)-2-methyl-phenyl]ethyl]amino]spiro[pyrrolo[2,3-g]phthalazine-3,4′-tetrahydropyran]-2-one], 24.5 nM.
The figure for `COCC1(C)C(=O)N(C)c2cc3c(N[C@H](C)c4cccc(C(F)(F)CO)c4C)nnc(C)c3cc21` (stereo partly drawn) [Compound 105, 8-[[(1R)-1-[3-(1,1-difluoro-2-hydroxy-ethyl)-2-methyl-phenyl]ethyl]amino]-3-(methoxymethyl)-1,3,5-trimethyl-pyrrolo[3,2-g]phthalazin-2-one] is 10.7 nM; for `COCC1(C)C(=O)N(C)c2cc3c(N[C@H](C)c4cccc(C(F)(F)CO)c4)nnc(C)c3cc21` (stereo partly drawn) [Compound 106, 8-[[(1R)-1-[3-(1,1-difluoro-2-hydroxy-ethyl)phenyl]ethyl]amino]-3-(methoxymethyl)-1,3,5-trimethyl-pyrrolo[3,2-g]phthalazin-2-one] it is 12 nM.
As for `Cc1nnc(N[C@H](C)c2cc(F)cc(C(F)(F)CO)c2)c2cc3c(cc12)C(C)(C)C(=O)N3C` [Compound 107, 1,3,3,5-tetramethyl-8-[[(1R)-1-[3-(1,1-difluoro-2-hydroxy-ethyl)-5-fluoro-phenyl]ethyl]amino]pyrrolo[2,3-g]phthalazin-2-one], the IC50 is 18.6 nM.
The figure for `Cc1c([C@@H](C)Nc2nnc(C)c3cc4c(cc23)N(C)C(=O)C4(C)C)cccc1C(F)(F)C(C)(C)O` [Compound 108, 1,3,3,5-tetramethyl-8-[[(1R)-1-[3-(1,1-difluoro-2-hydroxy-2-methyl-propyl)-2-methyl-phenyl]ethyl]amino]pyrrolo[2,3-g]phthalazin-2-one] is 10.5 nM.
The figure for `Cc1nnc(N[C@H](C)c2cccc(C(F)(F)CO)c2F)c2cc3c(cc12)C(C)(C)C(=O)N3C` [Compound 109, 1,3,3,5-tetramethyl-8-[[(1R)-1-[3-(1,1-difluoro-2-hydroxy-ethyl)-2-fluoro-phenyl]ethyl]amino]pyrrolo[2,3-g]phthalazin-2-one] is 7.08 nM; for `Cc1nnc(N[C@H](C)c2cccc(C(F)(F)CO)c2F)c2cc3c(cc12)C(C)(C)C(=O)N3C(C)C` [Compound 110, 1-isopropyl-3,3,5-trimethyl-8-[[(1R)-1-[3-(1,1-difluoro-2-hydroxy-ethyl)-2-fluoro-phenyl]ethyl]amino]pyrrolo[2,3-g]phthalazin-2-one] it is 7.08 nM.
Consider `Cc1nnc(N[C@H](C)c2cccc(C(F)(F)C(C)(C)O)c2F)c2cc3c(cc12)C(C)(C)C(=O)N3C(C)C` [Compound 111, 1-isopropyl-3,3,5-trimethyl-8-[[(1R)-1-[3-(1,1-difluoro-2-hydroxy-2-methyl-propyl)-2-fluoro-phenyl]ethyl]amino]pyrrolo[2,3-g]phthalazin-2-one], for which the IC50 was 7.41 nM.
In the case of `Cc1nnc(N[C@H](C)c2cccc(C(F)(F)CO)c2)c2cc3c(cc12)C1(CCOCC1)C(=O)N3C1CC1` [Compound 112, 1-cyclopropyl-5-methyl-8-[[(1R)-1-[3-(1,1-difluoro-2-hydroxy-ethyl)phenyl]ethyl]amino]spiro [pyrrolo[2,3-g]phthalazine-3,4′-tetrahydropyran]-2-one], the IC50 is 11 nM.
With `COCC1(C)C(=O)N(C)c2cc3c(N[C@H](C)c4cccc(C(F)(F)C(C)(C)O)c4C)nnc(C)c3cc21` (stereo partly drawn) [Compound 113, 8-[[(1R)-1-[3-(1,1-difluoro-2-hydroxy-2-methyl-propyl)-2-methyl-phenyl]ethyl]amino]-3-(methoxymethyl)-1,3,5-trimethyl-pyrrolo[3,2-g]phthalazin-2-one] the figure was 13.5 nM.
With `Cc1nnc(N[C@H](C)c2cccc(C(F)(F)CO)c2F)c2cc3c(cc12)C1(CCOCC1)C(=O)N3C1CC1` [Compound 114, 1-cyclopropyl-5-methyl-8-[[(1R)-1-[3-(1,1-difluoro-2-hydroxy-ethyl)-2-fluoro-phenyl]ethyl]amino]spiro[pyrrolo [2,3-g]phthalazine-3,4′-tetrahydropyran]-2-one] the figure was 9.12 nM.
With `Cc1nnc(N[C@H](C)c2cccc(C(F)(F)C(C)(C)O)c2F)c2cc3c(cc12)N(C)C(=O)C31CCOCC1` [Compound 115, 1,8-dimethyl-5-[[(1R)-1-[3-(1,1-difluoro-2-hydroxy-2-methyl-propyl)-2-fluoro-phenyl]ethyl]amino]spiro[pyrrolo[3,2-g]phthalazine-3,4′-tetrahydropyran]-2-one] the figure was 6.61 nM; with `Cc1nnc(N[C@H](C)c2cccc(C(F)(F)CO)c2F)c2cc3c(cc12)N(C)C(=O)C31CCOCC1` [Compound 116, 1,8-dimethyl-5-[[(1R)-1-[3-(1,1-difluoro-2-hydroxy-ethyl)-2-fluoro-phenyl]ethyl]amino]spiro[pyrrolo [3,2-g]phthalazine-3,4′-tetrahydropyran]-2-one], 6.61 nM; with `COC1(C)C(=O)N(C2CC2)c2cc3c(N[C@H](C)c4cccc(C(F)(F)C(C)(C)O)c4)nnc(C)c3cc21` (stereo partly drawn) [Compound 117, 1-cyclopropyl-3-methoxy-3,5-dimethyl-8-[[(1R)-1-[3-(1,1-difluoro-2-hydroxy-2-methyl-propyl)phenyl]ethyl]amino]pyrrolo [2,3-g]phthalazin-2-one], 9.55 nM.
For `Cc1nnc(N[C@H](C)c2cccc(C(F)(F)CN)c2F)c2cc3c(cc12)C(C)(C)C(=O)N3C` [Compound 118, 1,3,3,5-tetramethyl-8-[[(1R)-1-[3-(2-amino-1,1-difluoro-ethyl)-2-fluoro-phenyl]ethyl]amino]pyrrolo[2,3-g]phthalazin-2-one], the IC50 is 11.5 nM.
`Cc1c([C@@H](C)Nc2nnc(C)c3cc4c(cc23)N(C2CC2)C(=O)C42CCOCC2)cccc1C(F)(F)CO` [Compound 119, 1-cyclopropyl-5-methyl-8-[[(1R)-1-[3-(1,1-difluoro-2-hydroxy-ethyl)-2-methyl-phenyl]ethyl]amino]spiro[pyrrolo [2,3-g]phthalazine-3,4′-tetrahydropyran]-2-one]: the IC50 was 7.41 nM.
The figure for `Cc1nnc(N[C@H](C)c2cccc(C(F)(F)C(C)(C)O)c2)c2cc3c(cc12)C1(CCOCC1)C(=O)N3C1CC1` [Compound 120, 1-cyclopropyl-5-methyl-8-[[(1R)-1-[3-(1,1-difluoro-2-hydroxy-2-methyl-propyl)phenyl]ethyl]amino]spiro [pyrrolo[2,3-g]phthalazine-3,4′-tetrahydropyran]-2-one] is 10.5 nM.
